Values quoted from earlier work in patent US11718625B2, “Near-infrared fluorescent molecule active targeting folate receptor and preparation method thereof” (NANJING NUOYUAN MEDICAL DEVICES CO., LTD, priority 2020, dated 2023).

Legend:
[1] = at maximum injection dosage less than 2 mg/kg; literature report and own detection data
tumor = conditions: clinical practice

In the case of `CC1(C)C(/C=C/C=C/C=C/C=C2\N(CCCCS(=O)(=O)O)c3ccc4ccccc4c3C2(C)C)=[N+](CCCCS(=O)(=O)[O-])c2ccc3ccccc3c21` [ICG, Indocyanine green], the quantum yield (in an aqueous solution) is given as “less than 1%”, the “wavelength of emitted fluorescence” value (under irradiation with the wavelength of 780 nm) is given as 830 nm and the “concentration of the ICG in the human body tumors” value [1] is given as 10 to 1000 nM. The “waiting time to generate sufficient fluorescence contrast (tumor: normal tissue)” value (tumor) was “at least 12 hours”.
